In brackets after ≈: the same amount, converted by molar mass.
Legend:
[1] = tested on: Septoria tritici (ATCC 26517); test: Minimum Inhibitory Concentration (MIC) (Septoria tritici), CLSI-based microdilution; type: cell-based; details: Zymoseptoria tritici, ATCC26517, 168 h, S. tritici ATCC 26517; 22° C. for seven days; 50% reduction in growth; read-out: Septoria Rating (MIC)
Description: C. Minimum Inhibitory Concentration (MIC) (Septoria tritici)
Compounds of the present disclosure were assessed for their ability to inhibit the growth of a common strain of the fungal plant pathogen Septoria tritici (ATCC 26517) using a procedure based on a Clinical and Laboratory Standards Institute (CLSI) microdilution assay protocol for filamentous fungi.
Stock solutions of the test compounds and standards were prepared in DMSO at 6400 μg/mL. Each stock solution was used to prepare a 2-fold dilution series ranging from 16 to 0.016 μg/mL (total of 11 compound concentrations) in RPMI-1640 (Roswell Park Memorial Institute) medium containing 3-(N-morpholino)propanesulfonic acid (MOPS) buffer and 2% DMSO. A 100 μL aliquot of the dilutions was added to columns 1 (16 μg/mL compound) through 11 (0.016 μg/mL compound) of a 96-well microtiter plate. This format was replicated in a second row of the microtiter plate. Thus, each microtiter plate could include 11 concentrations of four test or control compounds replicated twice. A 100 μL aliquot of RPMI-1640/MOPS/2% DMSO medium was added to column 12 (no compound control) of the microtiter plate.
A fresh culture of S. tritici was used to prepare a solution of approximately 5×10^4 colony-forming units per milliliter (cfu/mL) in RPMI/MOPS medium without DMSO. A 100 µL aliquot of this solution was added to all 96 wells in the microtiter plate. […] The assay plates were incubated at 22° C. for seven days in the dark without shaking.
In each case of Table 3 the Septoria rating scale is as follows: […]

[2] = tested on: Puccinia recondita tritici = Puccinia triticina; test: Fungicidal activity vs. leaf rust on wheat plants; type: in vivo; details: wheat (variety Yuma) sprayed at 50 ppm, inoculated on the following day, evaluated 7-9 days later; read-out: Puccinia Rating (% Disease Control @ 50 ppm)
Excerpt: D. Evaluation of Fungicidal Activity Vs. Leaf Rust (Causal Agent Puccinia recondita tritici=Puccinia triticina; Bayer Code PUCCRT). […] Each pot contained 3-8 seedlings. These plants were sprayed until wet with the formulated test compounds. The compounds were formulated at 50 ppm in 10 vol. % acetone plus 90 vol. % Triton X water (deionized water 99.99 wt %+0.01 wt % Triton X100), giving a “formulated test compound.” Formulated test compounds were applied to plants using a turn table sprayer fitted with two opposing air atomization nozzles which delivered approximately 1500 L/ha of spray volume. On the following day, the leaves were inoculated with an aqueous spore suspension of Puccinia recondita tritici and the plants were kept in high humidity overnight to permit spores to germinate and infect the leaf. The plants were then transferred to a greenhouse until disease developed on untreated control plants. Disease severity was evaluated 7-9 days later, depending on the speed of disease development. In each case of Table 3, the Puccinia rating scale is as follows: […]

Row | SMILES | MIC [1] | pest or weed control at 50 ppm [2]
1 | OC(Cn1cnnn1)(c1ccc(F)cc1F)C(F)(F)c1ccc(-c2ccc(C(F)F)s2)cn1 (stereo not drawn) [Compound 33, 1-(5-(5-(Difluoromethyl)thiophen-2-yl)pyridin-2-yl)-2-(2,4-difluorophenyl)-1,1-difluoro-3-(1H-tetrazol-1-yl)propan-2-ol] | ≤ 0.5 µg/mL | 80 to 100%
2 | OC(Cn1cnnn1)(c1ccc(F)cc1F)C(F)(F)c1ccc(-c2ccc(C(F)(F)F)s2)cn1 (stereo not drawn) [Compound 34, 2-(2,4-Difluorophenyl)-1,1-difluoro-3-(1H-tetrazol-1-yl)-1-(5-(5-(trifluoromethyl)thiophen-2-yl)pyridin-2-yl)propan-2-ol] | 1.5 µg/mL (≈ 2.98 µM) | 80 to 100%
3 | OC(Cn1cnnn1)(c1ccc(F)cc1F)C(F)(F)c1ccc(-c2nccs2)cn1 (stereo not drawn) [Compound 38, 2-(2,4-Difluorophenyl)-1,1-difluoro-3-(1H-tetrazol-1-yl)-1-(5-(thiazol-2-yl)pyridin-2-yl)propan-2-ol] | ≤ 0.5 µg/mL | 80 to 100%
4 | OC(Cn1cnnn1)(c1ccc(Cl)cc1F)C(F)(F)c1ccc(CC(F)(F)F)cn1 (stereo not drawn) [Compound 39, 2-(4-Chloro-2-fluorophenyl)-1,1-difluoro-3-(1H-tetrazol-1-yl)-1-(5-(2,2,2-trifluoroethyl)pyridin-2-yl)propan-2-ol] | ≤ 0.5 µg/mL | 80 to 100%
5 | OC(Cn1cnnn1)(c1ccc(Cl)cc1F)C(F)(F)c1ccc(C2CC2)cn1 (stereo not drawn) [Compound 40, 2-(4-Chloro-2-fluorophenyl)-1-(5-cyclopropylpyridin-2-yl)-1,1-difluoro-3-(1H-tetrazol-1-yl)propan-2-ol] | ≤ 0.5 µg/mL | 80 to 100%
6 | OC(Cn1cnnn1)(c1ccc(F)cc1F)C(F)(F)c1ccc(CCCOCC(F)(F)F)cn1 (stereo not drawn) [Compound 45, 2-(2,4-Difluorophenyl)-1,1-difluoro-3-(1H-tetrazol-1-yl)-1-(5-(3-(2,2,2-trifluoroethoxy)propyl)pyridin-2-yl)propan-2-ol] | ≤ 0.5 µg/mL | 80 to 100%
7 | CCOC/C=C/c1ccc(C(F)(F)C(O)(Cn2cnnn2)c2ccc(F)cc2F)nc1 (stereo not drawn) [Compound 51, (E)-2-(2,4-Difluorophenyl)-1-(5-(3-ethoxyprop-1-en-1-yl)pyridin-2-yl)-1,1-difluoro-3-(1H-tetrazol-1-yl)propan-2-ol] | ≤ 0.5 µg/mL | < 40%
8 | CCOC/C=C\c1ccc(C(F)(F)C(O)(Cn2cnnn2)c2ccc(F)cc2F)nc1 (stereo not drawn) [Compound 52, (Z)-2-(2,4-Difluorophenyl)-1-(5-(3-ethoxyprop-1-en-1-yl)pyridin-2-yl)-1,1-difluoro-3-(1H-tetrazol-1-yl)propan-2-ol] | ≤ 0.5 µg/mL | < 40%
9 | CCOCCCc1ccc(C(F)(F)C(O)(Cn2cnnn2)c2ccc(F)cc2F)nc1 (stereo not drawn) [Compound 53, 2-(2,4-Difluorophenyl)-1-(5-(3-ethoxypropyl)pyridin-2-yl)-1,1-difluoro-3-(1H-tetrazol-1-yl)propan-2-ol] | ≤ 0.5 µg/mL | 80 to 100%
10 | CC(C)OC/C=C/c1ccc(C(F)(F)C(O)(Cn2cnnn2)c2ccc(F)cc2F)nc1 (stereo not drawn) [Compound 54, (E)-2-(2,4-Difluorophenyl)-1,1-difluoro-1-(5-(3-isopropoxyprop-1-en-1-yl)pyridin-2-yl)-3-(1H-tetrazol-1-yl)propan-2-ol] | 1.5 µg/mL (≈ 3.32 µM) | < 40%
11 | OC(Cn1cnnn1)(c1ccc(F)cc1F)C(F)(F)c1ccc(CC2CC2)cn1 (stereo not drawn) [Compound 59, 1-(5-(Cyclopropylmethyl)pyridin-2-yl)-2-(2,4-difluorophenyl)-1,1-difluoro-3-(1H-tetrazol-1-yl)propan-2-ol] | ≤ 0.5 µg/mL | 80 to 100%
12 | OC(Cn1cnnn1)(c1ccc(Cl)cc1F)C(F)(F)c1ccc(CC2CC2)cn1 (stereo not drawn) [Compound 60, 2-(4-Chloro-2-fluorophenyl)-1-(5-(cyclopropylmethyl)pyridin-2-yl)-1,1-difluoro-3-(1H-tetrazol-1-yl)propan-2-ol] | ≤ 0.5 µg/mL | 80 to 100%
13 | O=C(c1ccc(C(F)(F)F)cc1)c1ccc(C(F)(F)C(O)(Cn2cnnn2)c2ccc(F)cc2F)nc1 (stereo not drawn) [Compound 66, (6-(2-(2,4-Difluorophenyl)-1,1-difluoro-2-hydroxy-3-(1H-tetrazol-1-yl)propyl)pyridin-3-yl)(4-(trifluoromethyl)phenyl)methanone] | ≤ 0.5 µg/mL | 80 to 100%
14 | O=C(c1ccc(Cl)cc1)c1ccc(C(F)(F)C(O)(Cn2cnnn2)c2ccc(F)cc2F)nc1 (stereo not drawn) [Compound 67, (4-Chlorophenyl)(6-(2-(2,4-difluorophenyl)-1,1-difluoro-2-hydroxy-3-(1H-tetrazol-1-yl)propyl)pyridin-3-yl)methanone] | ≤ 0.5 µg/mL | 80 to 100%
15 | O=C(c1ccc(OCC(F)(F)F)cc1)c1ccc(C(F)(F)C(O)(Cn2cnnn2)c2ccc(F)cc2F)nc1 (stereo not drawn) [Compound 68, (6-(2-(2,4-Difluorophenyl)-1,1-difluoro-2-hydroxy-3-(1H-tetrazol-1-yl)propyl)pyridin-3-yl)(4-(2,2,2-trifluoroethoxy)phenyl)methanone] | ≤ 0.5 µg/mL | 80 to 100%
16 | O=C(c1ccc(F)cc1)c1ccc(C(F)(F)C(O)(Cn2cnnn2)c2ccc(F)cc2F)nc1 (stereo not drawn) [Compound 69, (6-(2-(2,4-Difluorophenyl)-1,1-difluoro-2-hydroxy-3-(1H-tetrazol-1-yl)propyl)pyridin-3-yl)(4-fluorophenyl)methanone] | ≤ 0.5 µg/mL | 80 to 100%
17 | O=C(c1ccc(C(F)(F)C(O)(Cn2cnnn2)c2ccc(F)cc2F)nc1)c1ccc(Cl)c(F)c1 (stereo not drawn) [Compound 71, (4-Chloro-3-fluorophenyl)(6-(2-(2,4-difluorophenyl)-1,1-difluoro-2-hydroxy-3-(1H-tetrazol-1-yl)propyl)pyridin-3-yl)methanone] | ≤ 0.5 µg/mL | 80 to 100%
18 | OC(Cn1cnnn1)(c1ccc(F)cc1F)C(F)(F)c1ccc(Cc2ccc(C(F)(F)F)cc2)cn1 (stereo not drawn) [Compound 73, 2-(2,4-Difluorophenyl)-1,1-difluoro-3-(1H-tetrazol-1-yl)-1-(5-(4-(trifluoromethyl)benzyl)pyridin-2-yl)propan-2-ol] | ≤ 0.5 µg/mL | 80 to 100%
19 | OC(Cn1cnnn1)(c1ccc(F)cc1F)C(F)(F)c1ccc(Cc2ccccc2)cn1 (stereo not drawn) [Compound 75, 1-(5-Benzylpyridin-2-yl)-2-(2,4-difluorophenyl)-1,1-difluoro-3-(1H-tetrazol-1-yl)propan-2-ol] | ≤ 0.5 µg/mL | 80 to 100%
20 | OC(Cn1cnnn1)(c1ccc(F)cc1F)C(F)(F)c1ccc(Cc2ccc(OC(F)(F)F)cc2)cn1 (stereo not drawn) [Compound 76, 2-(2,4-Difluorophenyl)-1,1-difluoro-3-(1H-tetrazol-1-yl)-1-(5-(4-(trifluoromethoxy)benzyl)pyridin-2-yl)propan-2-ol] | ≤ 0.5 µg/mL | 80 to 100%
21 | OC(Cn1cnnn1)(c1ccc(F)cc1F)C(F)(F)c1ccc(Cc2ccc(Cl)cc2)cn1 (stereo not drawn) [Compound 77, 1-(5-(4-Chlorobenzyl)pyridin-2-yl)-2-(2,4-difluorophenyl)-1,1-difluoro-3-(1H-tetrazol-1-yl)propan-2-ol] | ≤ 0.5 µg/mL | 80 to 100%
22 | N#Cc1ccc(OCc2ccc(C(F)(F)C(O)(Cn3cnnn3)c3ccc(F)cc3F)nc2)cc1 (stereo not drawn) [Compound 79, 4-((6-(2-(2,4-Difluorophenyl)-1,1-difluoro-2-hydroxy-3-(1H-tetrazol-1-yl)propyl)pyridin-3-yl)methoxy)benzonitrile] | ≤ 0.5 µg/mL | 80 to 100%
23 | OC(Cc1cnco1)(c1ccc(F)cc1F)C(F)(F)c1ccc(Br)cn1 (stereo not drawn) [Compound 83, 1-(5-Bromopyridin-2-yl)-2-(2,4-difluorophenyl)-1,1-difluoro-3-(oxazol-5-yl)propan-2-ol] | ≤ 0.5 µg/mL | 80 to 100%
24 | N#Cc1ccc(OCc2ccc(C(F)(F)C(O)(Cn3cnnn3)c3ccc(F)cc3F)nc2)c(F)c1 (stereo not drawn) [Compound 88, 4-((6-(2-(2,4-difluorophenyl)-1,1-difluoro-2-hydroxy-3-(1H-tetrazol-1-yl)propyl)pyridin-3-yl)methoxy)-3-fluorobenzonitrile] | ≤ 0.5 µg/mL | 80 to 100%
